The source of these data is patent US20240287107A1, “PRODRUGS OF DIMETHYLTRYPTAMINE AND DERIVATIVES THEREOF” (priority 2022, published 2024).

A short description of the series: Stability in mouse plasma. In kind it is in vitro ADME. How it is done:
Chemical and plasma stability of prodrug Compound 1 was evaluated and the results enumerated in Table 7 and Table 8, respectively. PK studies of prodrug Compound 1 and metabolite (VLS-02-23-10) in mice were also conducted and both plasma exposure and brain exposure were analyzed as shown in FIGS. 1A-1C and FIGS. 2A-2B, respectively.

Compound `CC(C)[N+](C)(CCOC(=O)C1c2ccccc2Oc2ccccc21)C(C)C` [Propantheline] showed a T½ of 0.5682 h.
In turn, `C[N+](C)(CCc1c[nH]c2ccccc12)COP(=O)([O-])O` [Compound 1, ((2-(1H-indol-3-yl)ethyl)dimethyl-λ^4-azaneyl)methyl hydrogen phosphate] had a T½ of 9.4723 h.
